Source: the supplement of paper PMC10733146

Columns and labels:
Experiment in all cases: viability relative to DMSO control (fraction); higher = less drug effect (more viable cells)
Conditions in all cases: 48 h
Pralatrexate = compound: C#CCC(Cc1cnc2nc(N)nc(N)c2n1)c1ccc(C(=O)N[C@@H](CCC(=O)O)C(=O)O)cc1 [Pralatrexate]
How it was run: (§1)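 Using 384-well plates with compounds already plated at five concentrations, one well per concentration, 4 × 10^4 primary mononuclear tumour cells were added per well. Cells were Ficoll-isolated from blood or bone marrow or came from processed lymph node, fresh or cryopreserved. They were kept for 48 h at 37 °C and 5% CO2 in RPMI-1640 supplemented with penicillin/streptomycin, L-glutamine and human serum, and viability was read as CellTiter-Glo luminescence relative to the median of 16 inner DMSO wells.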

Pacritinib = compound: C1=N/C2=N/c3ccc(OCCN4CCCC4)c(c3)COC/C=C/COCc3cccc(c3)C(=C1)N2 [Pacritinib]
How it was run: as §1

Idarubicin = compound: CC(=O)[C@]1(O)Cc2c(O)c3c(c(O)c2[C@@H](O[C@H]2C[C@H](N)[C@H](O)[C@H](C)O2)C1)C(=O)c1ccccc1C3=O [Idarubicin]
How it was run: as §1

[1] = compound: CC(C)(C)OC(=O)Nc1ccc(-c2cc(C(=O)NCCCCCCC(=O)NO)no2)cc1
How it was run: as §1

Bortezomib = compound: CC(C)C[C@H](NC(=O)[C@H](Cc1ccccc1)NC(=O)c1cnccn1)B(O)O [Bortezomib]
How it was run: as §1

Vemurafenib = compound: CCCS(=O)(=O)Nc1ccc(F)c(C(=O)c2c[nH]c3ncc(-c4ccc(Cl)cc4)cc23)c1F [Vemurafenib]
How it was run: as §1

Birinapant = compound: CC[C@H](NC(=O)[C@H](C)NC)C(=O)N1C[C@@H](O)C[C@H]1Cc1c(-c2[nH]c3cc(F)ccc3c2C[C@@H]2C[C@H](O)CN2C(=O)[C@H](CC)NC(=O)[C@H](C)NC)[nH]c2cc(F)ccc12 [Birinapant]
How it was run: as §1

Ribociclib = compound: CN(C)C(=O)c1cc2cnc(Nc3ccc(N4CCNCC4)cn3)nc2n1C1CCCC1 [Ribociclib]
How it was run: as §1

Nelarabine = compound: COc1nc(N)nc2c1ncn2[C@@H]1O[C@H](CO)[C@@H](O)[C@@H]1O [Nelarabine]
How it was run: as §1

Panobinostat = compound: Cc1[nH]c2ccccc2c1CCNCc1ccc(/C=C/C(=O)NO)cc1 [Panobinostat]
How it was run: as §1

Imatinib = compound: Cc1ccc(NC(=O)c2ccc(CN3CCN(C)CC3)cc2)cc1Nc1nccc(-c2cccnc2)n1 [Imatinib]
How it was run: as §1

Nilotinib = compound: Cc1cn(-c2cc(NC(=O)c3ccc(C)c(Nc4nccc(-c5cccnc5)n4)c3)cc(C(F)(F)F)c2)cn1 [Nilotinib]
How it was run: as §1

AZD7762 = compound: NC(=O)Nc1cc(-c2cccc(F)c2)sc1C(=O)N[C@H]1CCCNC1 [AZD7762]
How it was run: as §1

Iniparib = compound: NC(=O)c1ccc(I)c([N+](=O)[O-])c1 [Iniparib]
How it was run: as §1

[2] = compound: OCc1ccc(-c2ccc(-c3ccc(CO)s3)o2)s1
How it was run: as §1

## primary T-PLL patient cells (S008)
Pralatrexate; 0.024 µM
  viability: 1.09
Pralatrexate; 0.12 µM
  viability: 0.978
Pralatrexate; 0.6 µM
  viability: 0.965
Pralatrexate; 3 µM
  viability: 0.982
Pralatrexate; 15 µM
  viability: 0.971
Pacritinib; 0.024 µM
  viability: 1.02
Pacritinib; 0.12 µM
  viability: 1.11
Pacritinib; 0.6 µM
  viability: 1.03
Pacritinib; 3 µM
  viability: 0.86
Pacritinib; 15 µM
  viability: 0.0403
Idarubicin; 0.024 µM
  viability: 0.918
Idarubicin; 0.12 µM
  viability: 0.591
Idarubicin; 0.6 µM
  viability: 0.128
Idarubicin; 3 µM
  viability: 0.0427
Idarubicin; 15 µM
  viability: 0.03
[1]; 0.024 µM
  viability: 0.97
[1]; 0.12 µM
  viability: 0.973
[1]; 0.6 µM
  viability: 1.01
[1]; 3 µM
  viability: 0.848
[1]; 15 µM
  viability: 0.704
Bortezomib; 0.008 µM
  viability: 0.88
Bortezomib; 0.04 µM
  viability: 1.02
Bortezomib; 0.2 µM
  viability: 0.872
Bortezomib; 1 µM
  viability: 0.921
Bortezomib; 5 µM
  viability: 0.879
Vemurafenib; 0.024 µM
  viability: 0.958
Vemurafenib; 0.12 µM
  viability: 0.983
Vemurafenib; 0.6 µM
  viability: 0.975
Vemurafenib; 3 µM
  viability: 0.998
Vemurafenib; 15 µM
  viability: 1.02
Birinapant; 0.0008 µM
  viability: 0.887
Birinapant; 0.004 µM
  viability: 0.915
Birinapant; 0.02 µM
  viability: 0.925
Birinapant; 0.1 µM
  viability: 0.897
Birinapant; 0.5 µM
  viability: 0.91
Ribociclib; 0.024 µM
  viability: 1.04
Ribociclib; 0.12 µM
  viability: 1.03
Ribociclib; 0.6 µM
  viability: 1.05
Ribociclib; 3 µM
  viability: 1.01
Ribociclib; 15 µM
  viability: 0.902
Nelarabine; 0.024 µM
  viability: 1.03
Nelarabine; 0.12 µM
  viability: 0.99
Nelarabine; 0.6 µM
  viability: 0.942
Nelarabine; 3 µM
  viability: 0.906
Nelarabine; 15 µM
  viability: 0.758
Panobinostat; 0.00064 µM
  viability: 0.965
Panobinostat; 0.0032 µM
  viability: 0.985
Panobinostat; 0.016 µM
  viability: 0.895
Panobinostat; 0.08 µM
  viability: 0.818
Panobinostat; 0.4 µM
  viability: 0.723
Imatinib; 0.08 µM
  viability: 0.971
Imatinib; 0.4 µM
  viability: 1.07
Imatinib; 2 µM
  viability: 0.994
Imatinib; 10 µM
  viability: 0.978
Nilotinib; 0.016 µM
  viability: 1.09
Nilotinib; 0.08 µM
  viability: 1.02
Nilotinib; 0.4 µM
  viability: 1.11
Nilotinib; 2 µM
  viability: 1.01
Nilotinib; 10 µM
  viability: 1.06
AZD7762; 0.024 µM
  viability: 0.989
AZD7762; 0.12 µM
  viability: 1.03
AZD7762; 0.6 µM
  viability: 0.963
AZD7762; 3 µM
  viability: 0.971
AZD7762; 15 µM
  viability: 0.933
Iniparib; 0.024 µM
  viability: 1.11
Iniparib; 0.12 µM
  viability: 0.994
Iniparib; 0.6 µM
  viability: 0.915
Iniparib; 3 µM
  viability: 0.962
Iniparib; 15 µM
  viability: 0.94
[2]; 0.024 µM
  viability: 0.894
[2]; 0.12 µM
  viability: 0.961
[2]; 0.6 µM
  viability: 0.855
[2]; 3 µM
  viability: 0.776
[2]; 15 µM
  viability: 0.246

## primary DLBCL patient cells (S082)
Pralatrexate; 0.024 µM
  viability: 1.02
Pralatrexate; 0.12 µM
  viability: 1.15
Pralatrexate; 0.6 µM
  viability: 0.992
Pralatrexate; 3 µM
  viability: 1.08
Pralatrexate; 15 µM
  viability: 1.05
Pacritinib; 0.024 µM
  viability: 0.963
Pacritinib; 0.12 µM
  viability: 0.972
Pacritinib; 0.6 µM
  viability: 0.916
Pacritinib; 3 µM
  viability: 0.543
Pacritinib; 15 µM
  viability: 0.0168
Idarubicin; 0.024 µM
  viability: 0.992
Idarubicin; 0.12 µM
  viability: 0.622
Idarubicin; 0.6 µM
  viability: 0.328
Idarubicin; 3 µM
  viability: 0.0161
Idarubicin; 15 µM
  viability: 0.0147
[1]; 0.024 µM
  viability: 0.786
[1]; 0.12 µM
  viability: 0.499
[1]; 0.6 µM
  viability: 0.13
[1]; 3 µM
  viability: 0.0294
[1]; 15 µM
  viability: 0.0162
Bortezomib; 0.008 µM
  viability: 0.846
Bortezomib; 0.04 µM
  viability: 0.987
Bortezomib; 0.2 µM
  viability: 0.842
Bortezomib; 1 µM
  viability: 0.899
Bortezomib; 5 µM
  viability: 0.882
Vemurafenib; 0.024 µM
  viability: 0.979
Vemurafenib; 0.12 µM
  viability: 0.989
Vemurafenib; 0.6 µM
  viability: 0.988
Vemurafenib; 3 µM
  viability: 1.03
Vemurafenib; 15 µM
  viability: 1.05
Birinapant; 0.0008 µM
  viability: 0.923
Birinapant; 0.004 µM
  viability: 1.04
Birinapant; 0.02 µM
  viability: 1.12
Birinapant; 0.1 µM
  viability: 1.09
Birinapant; 0.5 µM
  viability: 1.06
Ribociclib; 0.024 µM
  viability: 0.925
Ribociclib; 0.12 µM
  viability: 0.946
Ribociclib; 0.6 µM
  viability: 0.935
Ribociclib; 3 µM
  viability: 0.938
Ribociclib; 15 µM
  viability: 1.02
Nelarabine; 0.024 µM
  viability: 1.06
Nelarabine; 0.12 µM
  viability: 1.05
Nelarabine; 0.6 µM
  viability: 0.961
Nelarabine; 3 µM
  viability: 1
Nelarabine; 15 µM
  viability: 0.76
Panobinostat; 0.00064 µM
  viability: 0.781
Panobinostat; 0.0032 µM
  viability: 0.404
Panobinostat; 0.016 µM
  viability: 0.0415
Panobinostat; 0.08 µM
  viability: 0.0242
Panobinostat; 0.4 µM
  viability: 0.0275
Imatinib; 0.016 µM
  viability: 1.08
Imatinib; 0.4 µM
  viability: 1.2
Imatinib; 2 µM
  viability: 1.16
Imatinib; 10 µM
  viability: 1.36
Nilotinib; 0.016 µM
  viability: 1.06
Nilotinib; 0.08 µM
  viability: 1.04
Nilotinib; 0.4 µM
  viability: 1.09
Nilotinib; 2 µM
  viability: 1.08
Nilotinib; 10 µM
  viability: 1.11
AZD7762; 0.024 µM
  viability: 0.76
AZD7762; 0.12 µM
  viability: 0.417
AZD7762; 0.6 µM
  viability: 0.122
AZD7762; 3 µM
  viability: 0.152
AZD7762; 15 µM
  viability: 0.125
Iniparib; 0.024 µM
  viability: 1.09
Iniparib; 0.12 µM
  viability: 1.06
Iniparib; 0.6 µM
  viability: 1.01
Iniparib; 3 µM
  viability: 1.06
Iniparib; 15 µM
  viability: 1.01
[2]; 0.024 µM
  viability: 0.929
[2]; 0.12 µM
  viability: 1.02
[2]; 0.6 µM
  viability: 0.84
[2]; 3 µM
  viability: 0.904
[2]; 15 µM
  viability: 0.622
